The values that follow come from US11274111B2, “Arginase inhibitors and methods of use” (Merck Sharp & Dohme Corp., priority 2018, dated 2022).

The test has as its target T1, Arginase (Homo sapiens, UniProt P05089).
T1 construct: Arginase protein was recombinantly expressed in Escherichia coli
T1 sequence (P05089 1-322): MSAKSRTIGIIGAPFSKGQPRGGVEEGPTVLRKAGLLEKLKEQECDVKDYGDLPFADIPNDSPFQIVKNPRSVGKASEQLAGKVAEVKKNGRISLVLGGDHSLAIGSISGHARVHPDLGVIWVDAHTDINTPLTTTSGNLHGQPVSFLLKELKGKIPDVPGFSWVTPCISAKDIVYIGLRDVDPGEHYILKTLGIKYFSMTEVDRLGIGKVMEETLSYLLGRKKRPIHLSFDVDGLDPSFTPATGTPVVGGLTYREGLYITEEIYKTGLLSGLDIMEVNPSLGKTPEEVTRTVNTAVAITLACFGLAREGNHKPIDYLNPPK
Nature of the test: Arginase Thioornithine Generating Assay (TOGA). As to conditions: for Percent Inhibition at Top Dose / inhibition at 10 µM: Top Dose 10000 nM; for IC50: recombinant arginase 1.88 nM, thioarginine substrate. It is filed as biochemical. The procedure:
Arginase Thioornithine Generating Assay (TOGA)
Compounds were serially diluted in ten 3-fold steps in DMSO starting from 10 mM DMSO stocks. Compound dilutions or DMSO alone were then dispensed from the dilution plate into a Greiner black 384-well assay plate (catalog #781086) using an Echo 555 acoustic liquid handler (Labcyte).
Arginase protein was recombinantly expressed in Escherichia coli. Purified protein was then diluted in assay buffer (50 mM Tris pH 7.5, 50 mM NaCl, 1 mM manganese chloride, 0.05% bovine serum albumin to obtain a final Arginase concentration of 1.88 nM. Arginase solution (20 μL) or buffer alone (20 μL) were dispensed to wells of the assay plate using a BioRAPTR liquid dispenser (Beckman Coulter). Assay plates containing compound and arginase enzyme were incubated at room temperature for 30 minutes. Afterwards, 5 μL of 2.5 mM thioarginine (Cayman Chemicals) in assay buffer were added to each well of the assay plate using a BioRAPTR liquid dispenser. Plates were incubated at room temperature for 60 minutes and reactions were quenched by addition of 15 μL of 200 uM 7-Diethylamine-3-(4-maleimidophenyl)-4-methylcoumarin (Sigma Chemical) in 70% ethanol. Plates were briefly shaken to mix and the fluorescence was measured in an Spectramax plate reader (Molecular Devices) with a 410 nm excitation wavelength and an 490 nm emission wavelength.
Potencies were calculated by […] to the four parameter logistic IC50 equation.

The mark [1] stands for this setting: read-out: Percent Inhibition at Top Dose.

Counter-ions that a name gives are not always drawn.

For the molecule “(1S,2S,3aR,4S,5R,6aS)-2-amino-1-(3-boronopropyl)-4-fluoro-5-hydroxyoctahydropentalene-2-carboxylate [Example 54b]”, the “Percent Inhibition at Top Dose” value came out at 100.1% and the IC50 amounted to 42.5 nM.
In the case of `N[C@@]1(C(=O)O)C[C@H]2CN(CC(F)(F)F)C[C@H]2[C@@H]1CCCB(O)O` [Example 10, (3aR,4S,5S,6aR)-5-amino-4-(3-boronopropyl)-2-(2,2,2-trifluoroethyl)octahydrocyclopenta[c]pyrrole-5-carboxylic acid], the IC50 was 5270 nM. For the same molecule, under setting [1], the inhibition at 10 µM stood at 55.9%.
Take `NCC(=O)N1C[C@@H]2C[C@@](N)(C(=O)O)[C@@H](CCCB(O)O)[C@@H]2C1` [Example 5, (3aR,4S,5S,6aR)-5-amino-4-(3-boronopropyl)-2-glycyloctahydrocyclopenta[c]pyrrole-5-carboxylic acid]: the half-inhibitory concentration (IC50) was determined as 160 nM. In addition, under setting [1], the inhibition at 10 µM turned out to be 95.1%.
As to `NC1(C(=O)O)CC2CN(S(N)(=O)=O)CC2C1CCCB(O)O` (single isomer, unassigned) [Example 18a, 5-amino-4-(3-boronopropyl)-2-sulfamoyloctahydrocyclopenta[c]pyrrole-5-carboxylic acid], the inhibition at 10 µM under setting [1] amounted to 100%.
Same read-out and setting: under `C[C@@H]1NC[C@@H]2CC(N)(C(=O)O)[C@@H](CCCB(O)O)C21` (stereo partly drawn) [Example 31b, (3aR,6S,6aR)-5-amino-6-(3-boronopropyl)-1-methyloctahydrocyclopenta[c]pyrrole-5-carboxylic acid, HFBA Salt] stands 70%.
`N[C@@]1(C(=O)O)C[C@H]2CNC[C@H]2[C@@H]1CCCB(O)O` [Example 1e, (3aR,4S,5S,6aR)-5-amino-4-(3-boronopropyl)octahydrocyclopenta[c]pyrrole-5-carboxylic acid]: the inhibition at 10 µM under setting [1] came out at 98.9%.
Same read-out and setting: under `CC(C)N1C[C@@H]2C[C@@](N)(C(=O)O)[C@@H](CCCB(O)O)[C@@H]2C1` [Example 8, (3aR,4S,5S,6aR)-5-amino-4-(3-boronopropyl)-2-isopropyloctahydrocyclopenta[c]pyrrole-5-carboxylic acid] stands 74.8%.
On to `CN1C[C@@H]2C[C@@](N)(C(=O)O)[C@@H](CCCB(O)O)[C@@H]2C1` [Example 2, (3aR,4S,5S,6aR)-5-amino-4-(3-boronopropyl)-2-methyloctahydrocyclopenta[c]pyrrole-5-carboxylic acid], for which the IC50 is 82.7 nM. Also, for the setting “Top Dose 16000 nM, read-out: Percent Inhibition at Top Dose”, the inhibition at 16 µM stood at 82.6%.
With `NC1(C(=O)O)C[C@H]2CNC[C@H]2C1CCCB(O)O` (relative stereo) [Example 1, (3aR,6aR-rel-)-5-amino-4-(3-boronopropyl)octahydrocyclopenta[c]pyrrole-5-carboxylic acid], for the setting “Top Dose 100000 nM, read-out: Percent Inhibition at Top Dose”, the inhibition at 100 µM is 99.4%.
As to “(1S,2S,3aS,5R,6R,6aR)-2-amino-1-(3-boronopropyl)-6-fluoro-5-hydroxyoctahydropentalene-2-carboxylate [Example 52b]”, the “Percent Inhibition at Top Dose” value came out at 99.46% and the IC50 stood at 37 nM.
As for `NC1(C(=O)O)CC2(CCNC2)OC1CCCB(O)O` (stereo not drawn) [Example 41, 3-amino-2-(3-boronopropyl)-1-oxa-7-azaspiro[4.4]nonane-3-carboxylic acid], the inhibition at 10 µM under setting [1] was 97.7%.
As for `NC1(C(=O)O)C(CCCB(O)O)CC2NCCCC21` (stereo not drawn) [Example 40, 5-amino-6-(3-boronopropyl)octahydro-1H-cyclopenta[b]pyridine-5-carboxylic acid], under setting [1], the inhibition at 10 µM is 91.4%.
For “(1S,2S,3aR,4S,5R,6aS)-2-amino-1-(3-boronopropyl)-4-fluoro-5-(methylamino)octahydropentalene-2-carboxylate [Example 55a]”, the “Percent Inhibition at Top Dose” value came out at 103.1% and the IC50 turned out to be 23.2 nM.
`CN[C@@H]1C[C@@H]2C[C@@](N)(C(=O)O)[C@@H](CCCB(O)O)[C@@H]2C1` [Example 51a, (1S,2S,3aR,5R,6aR)-2-amino-1-(3-boronopropyl)-5-(methylamino)octahydropentalene-2-carboxylic acid]: the IC50 is 33 nM. The inhibition at 10 µM under setting [1] came to 99.6%.
